For series [1] the following is noted: patients with moderate CLD; cited from earlier work.
The target in series [2] is T1, OATP1B3 (Homo sapiens, UniProt Q9NPD5).
T1 sequence (Q9NPD5 1-702): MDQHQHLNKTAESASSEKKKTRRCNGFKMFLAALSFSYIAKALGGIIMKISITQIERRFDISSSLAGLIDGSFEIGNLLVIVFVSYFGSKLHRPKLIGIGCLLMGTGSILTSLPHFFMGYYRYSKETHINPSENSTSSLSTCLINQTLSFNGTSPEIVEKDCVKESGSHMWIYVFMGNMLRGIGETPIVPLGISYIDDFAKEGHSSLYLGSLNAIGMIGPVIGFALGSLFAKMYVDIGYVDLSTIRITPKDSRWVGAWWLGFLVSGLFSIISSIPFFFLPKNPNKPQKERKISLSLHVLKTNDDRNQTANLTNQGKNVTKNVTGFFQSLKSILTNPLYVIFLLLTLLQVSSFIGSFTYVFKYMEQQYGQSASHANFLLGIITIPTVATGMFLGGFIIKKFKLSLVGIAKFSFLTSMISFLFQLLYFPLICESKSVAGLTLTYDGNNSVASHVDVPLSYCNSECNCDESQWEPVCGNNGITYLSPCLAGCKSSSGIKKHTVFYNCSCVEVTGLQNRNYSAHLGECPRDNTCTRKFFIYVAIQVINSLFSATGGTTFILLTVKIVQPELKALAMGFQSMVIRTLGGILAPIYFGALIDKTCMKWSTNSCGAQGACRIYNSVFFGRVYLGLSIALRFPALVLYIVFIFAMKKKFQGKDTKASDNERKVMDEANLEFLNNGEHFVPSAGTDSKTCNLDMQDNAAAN
The series can be described thus: Inhibition of OATP1B3-mediated uptake in OATP1B3-transfected HEK293 cells by bile acids and rifampicin.

The test system of a further series is rat primary hepatocytes. The series is described as follows: Inhibition of EZE-Ph uptake into rat primary hepatocytes by bile acids and rifampicin. As to conditions: 10 μM EZE-Ph, 10 min.
The subject of a further series is UGTs. The series is described as follows: Inhibition of EZE glucuronidation by bile acids in rat liver S9. It counts as in vitro ADME. As to conditions: liver S9 fractions, pH 7.4, probe EZE (ezetimibe), 3 μM; formation of EZE-Ph; rat liver S9, 3 μM EZE, bile acids up to 100 μM; read-out: inhibition of EZE-Ph generation. Here is the method:
To evaluate the effect of hepatic impairment on the hepatic metabolism of EZE, 0.3 μM, 3 μM, and 30 μM EZE were incubated with rat liver S9 fractions (2 mg of protein/mL) at 37 °C for 60 min in the Tris-HCl-buffered system (100 mM, pH 7.4), consisting of UDPGA (1 mM), MgCl2 (10 mM), and alamethicin (25 μg/mL). To investigate the effect of bile acids on the metabolism of EZE in the liver, 3 μM EZE was incubated with rat or human liver S9 fractions (2 mg of protein/mL) at 37 °C for 60 min in the Tris-HCl-buffered system with or without bile acids at 1, 10, and 100 μM. The total volume of the incubation system was 100 μL. The reactions were terminated by adding 100 μL of ice-cold acetonitrile. Samples were stored at −20 °C until analysis. EZE and EZE-Ph were detected by liquid chromatography with tandem mass spectrometry (LC-MS/MS).

Series [3] addresses T1, OATP1B3.
Substrate in series [4]: O=C(O)C1OC(Oc2ccc([C@@H]3[C@@H](CC[C@H](O)c4ccc(F)cc4)C(=O)N3c3ccc(F)cc3)cc2)C(O)C(O)C1O
The series can be described thus: Uptake of EZE-Ph into OAT3-transfected HEK293 cells. It counts as in vitro ADME, human. Conditions: other: OAT3 HEK293, uptake time 5 min; 37.0 °C. Here is the method: (§1) The kinetic parameters and the half inhibitory concentration (IC50) were calculated using GraphPad Prism. […] The intrinsic clearance (CLint) was calculated as CLint = Vmax/Km.

Substrate in series [5]: O=C(O)C1OC(Oc2ccc([C@@H]3[C@@H](CC[C@H](O)c4ccc(F)cc4)C(=O)N3c3ccc(F)cc3)cc2)C(O)C(O)C1O
The series can be described thus: Uptake of EZE-Ph into OATP2B1-transfected HEK293 cells. It counts as in vitro ADME, human. Conditions: other: OATP2B1 HEK293, uptake time 5 min; 37.0 °C. Here is the method:
as §1

One may read the IC50 as the concentration needed to halve the response being measured. Read a low IC50 as greater potency. In general, Km refers to the substrate concentration at which the rate is half of its maximum. As usually defined, the Vmax is the rate approached at saturating substrate.

Read-outs that look alike come from different tables or passages of the source. Bounds are passed on as bounds.

Take `C=CCN1CC[C@]23c4c5ccc(O)c4O[C@H]2C(=O)CC[C@@]3(O)[C@H]1C5` [Naloxone]: the decrease of clearance result in series [1] is “over 50%”.

On OATP1B3 [2], `C[C@H](CCC(=O)NCC(=O)O)[C@H]1CC[C@H]2[C@@H]3[C@H](O)C[C@@H]4C[C@H](O)CC[C@]4(C)[C@H]3C[C@H](O)[C@]12C` [GCA, glycocholic acid] gave an IC50 of 79.7 µM. Also, the “EZE-Ph uptake by rat hepatocytes in the presence of inhibitor” value in the series on rat primary hepatocytes (inhibitor 1 μM) is reported as 109%; in the series on rat primary hepatocytes (inhibitor 10 μM), 64.1%; in the series on rat primary hepatocytes (inhibitor 100 μM), 16.3%. Further, the inhibition at 60 min in the series with UGTs is less than 40%.

`C[C@H](CCC(=O)NCCS(=O)(=O)O)[C@H]1CC[C@H]2[C@@H]3[C@H](O)C[C@@H]4C[C@H](O)CC[C@]4(C)[C@H]3C[C@H](O)[C@]12C` [TCA, taurocholic acid] displayed an IC50 on OATP1B3 [2] of 93.1 µM. Besides, the “EZE-Ph uptake by rat hepatocytes in the presence of inhibitor” value in the series with rat primary hepatocytes (inhibitor 1 μM) was 94.1%; in the series with rat primary hepatocytes (inhibitor 100 μM), 13.9%. For the same molecule, in the series on UGTs, the inhibition at 60 min is less than 40%.

On OATP1B3 [3], `C[C@H](CCC(=O)NCCS(=O)(=O)O)[C@H]1CC[C@H]2[C@@H]3[C@H](O)C[C@@H]4C[C@H](O)CC[C@]4(C)[C@H]3CC[C@]12C` [TCDCA, taurochenodeoxycholic acid] yielded an IC50 of 7.94 µM. This counts as single-digit micromolar.

B1: OAT3 (Homo sapiens) (protein)
chain: MTFSEILDRVGSMGHFQFLHVAILGLPILNMANHNLLQIFTAATPVHHCRPPHNASTGPWVLPMGPNGKPERCLRFVHPPNASLPNDTQRAMEPCLDGWVYNSTKDSIVTEWDLVCNSNKLKEMAQSIFMAGILIGGLVLGDLSDRFGRRPILTCSYLLLAASGSGAAFSPTFPIYMVFRFLCGFGISGITLSTVILNVEWVPTRMRAIMSTALGYCYTFGQFILPGLAYAIPQWRWLQLTVSIPFFVFFLSSWWTPESIRWLVLSGKSSKALKILRRVAVFNGKKEEGERLSLEELKLNLQKEISLAKAKYTASDLFRIPMLRRMTFCLSLAWFATGFAYYSLAMGVEEFGVNLYILQIIFGGVDVPAKFITILSLSYLGRHTTQAAALLLAGGAILALTFVPLDLQTVRTVLAVFGKGCLSSSFSCLFLYTSELYPTVIRQTGMGVSNLWTRVGSMVSPLVKITGEVQPFIPNIIYGITALLGGSAALFLPETLNQPLPETIEDLENWSLRAKKPKQEPEVEKASQRIPLQPHGPGLGSS
notes: host or cells: HEK293
Regarding B1, in series [4], the Km was found to be 166 µM, the Vmax is 0.000306 µmol/min/mg and the Vmax/Km came out at 1.84 µL/min/mg.

B2: OATP2B1 (Homo sapiens) (protein)
chain: MGPRIGPAGEVPQVPDKETKATMGTENTPGGKASPDPQDVRPSVFHNIKLFVLCHSLLQLAQLMISGYLKSSISTVEKRFGLSSQTSGLLASFNEVGNTALIVFVSYFGSRVHRPRMIGYGAILVALAGLLMTLPHFISEPYRYDNTSPEDMPQDFKASLCLPTTSAPASAPSNGNCSSYTETQHLSVVGIMFVAQTLLGVGGVPIQPFGISYIDDFAHNSNSPLYLGILFAVTMMGPGLAFGLGSLMLRLYVDINQMPEGGISLTIKDPRWVGAWWLGFLIAAGAVALAAIPYFFFPKEMPKEKRELQFRRKVLAVTDSPARKGKDSPSKQSPGESTKKQDGLVQIAPNLTVIQFIKVFPRVLLQTLRHPIFLLVVLSQVCLSSMAAGMATFLPKFLERQFSITASYANLLIGCLSFPSVIVGIVVGGVLVKRLHLGPVGCGALCLLGMLLCLFFSLPLFFIGCSSHQIAGITHQTSAHPGLELSPSCMEACSCPLDGFNPVCDPSTRVEYITPCHAGCSSWVVQDALDNSQVFYTNCSCVVEGNPVLAGSCDSTCSHLVVPFLLLVSLGSALACLTHTPSFMLILRGVKKEDKTLAVGIQFMFLRILAWMPSPVIHGSAIDTTCVHWALSCGRRAVCRYYNNDLLRNRFIGLQFFFKTGSVICFALVLAVLRQQDKEARTKESRSSPAVEQQLLVSGPGKKPEDSRV
notes: host or cells: HEK293
Take B2: in series [5], the Km was 119 µM, the Vmax was 6.69e-05 µmol/min/mg and the Vmax/Km turned out to be 0.56 µL/min/mg.

Values taken from article PMC9785202, “Changes in Disposition of Ezetimibe and Its Active Metabolites Induced by Impaired Hepatic Function: The Influence of Enzyme and Transporter Activities” (Pharmaceutics, 2022).
